# US12558386B2, “Methods and compositions to modulate antibiotic resistance and gastrointestinal microbiota” (OHIO STATE INNOVATION FOUNDATION, priority 2018, dated 2026)
# What was measured:
# [1] = tested on: E. coli CA-1; test: MIC assessment (TREK Sensititre); format: cell-based, Escherichia coli; settings: Escherichia coli, CA1; E. coli CA-1; read-out: MIC
# Text: Bacterial strains. Multiple Amp^r strains from feces of broiler chickens without antibiotic treatment were recovered on Columbia blood Agar base (Becton, […] Dickinson and Company, Franklin Lakes, NJ) supplemented with 5% defibrinated sheep blood (Thermo Scientific™, Grand Island, NY).
# (§1) Minimum inhibition concertation (MIC) assessment. A TREK Sensititre diagnostic system (Thermo scientific, Oakwood Village, OH, USA) was used to assess the AR phenotype and MIC of isolated strains. Protocols to use this system can be found on www.trekds.com. Cation-adjusted Mueller Hinton Broth (Becton, Dickinson and Company, MD, USA) was used as basic medium.
# [2] = tested on: Amp^r (ESBL) Escherichia coli strains M9-1, M9-4, M9-12 and 933-36; test: MIC of the Amp^r marker strains (previously identified); format: cell-based; settings: antibiotic not given
# [3] = tested on: fecal microbiota; test: Chicken study, probiotics and ESBL E. coli followed by oral or injected Amp (FIG. 6); format: in vivo, chickens; settings: Group 7 and Group 5, with or without ESBL E. coli inoculation
# Text: FIGS. 6A and 6B show probiotics and ESBL inoculation on the profiles of poultry fecal microbiota followed by oral or injective antibiotic treatment. FIG. 6A) Phylum level; FIG. 6B) Class level. Group 1: probiotic cocktail treatment throughout, E coli exposure from Day 5 for 4 days and then oral Amp; Group 2: probiotic/peanut butter treatment throughout followed by E coli exposure and then oral Amp; Group 3: inoculated (E coli) then exposed to oral Amp, Group 4: noninoculated then exposed to oral Amp, Group 5: noninoculated then exposed to injective Amp, Group 6: noninoculated then exposed to saline; Group 7: inoculated (E coli) then exposed to injective Amp.
# It was recognized that even if antibiotic resistant bacteria may be reduced by probiotic treatment, some of those resistant bacteria seeds might still retain in the microbiota, and could pop up again when exposed to antibiotics. Therefore in another set of the experiment, following probiotic and ESBL E. coli exposure, the chickens were further treated with Amp by oral or muscle injection. […] But Probiotic treated chickens (Group 1 &2) retained more Firmicutes or Cynobacteria than chickens without probiotic treatment (Group 3 with inoculated ESBL E. coli & Group 4 natural flora, with one outlier). […]
# [4] = tested on: Three Amp^r E. coli; test: MIC assessment, summary for the three strains; format: cell-based, Escherichia coli; settings: E. coli CA-1, CA-4 and CA-20 together
# Protocol: (§2) Bacterial strains. Multiple Amp^r strains from feces of broiler chickens without antibiotic treatment were recovered on Columbia blood Agar base (Becton, […] Dickinson and Company, Franklin Lakes, NJ) supplemented with 5% defibrinated sheep blood (Thermo Scientific™, Grand Island, NY). The strains were maintained in Columbia broth (Becton Dickinson and Company, Franklin Lakes, NJ), and propagated by aerobic growth at 37° C., and further subjected to strain identification and Minimum Inhibition Concentration (MIC) assessments.
# as §1
# [5] = tested on: poultry gut microbiota; test: Impact of ampicillin administration routes on poultry gut microbiota (FIG. 7); format: in vivo, chickens; settings: Day 25
# Text: (A) NI-Saline-PO; (B) NI-Amp-IM; (C) NI-Amp-PO; (D) Amp-IM; (E) Amp-PO.
# The impact of ampicillin administration routes and inoculation of Amp^r E. coli on poultry gut microbiota. FIG. 7A-B illustrates the impact of ampicillin application on gut microbiota of chickens. The data illustrated that without antibiotic application (FIG. 7A), Lactobacillus dominant, E. coli/Shegilla insignificant. […] The results clearly illustrated the major impact on oral ampicillin administration on poultry gut microbiota by diminishing Lactobacillus, increasing Clostridium, and massively increase […] due to Amp^r E. coli in inoculated chickens and Klebsiella in non-inoculated chickens.
# [6] = tested on: CG-12; test: Screening of antibiotic susceptible commensal strains on antibiotic agar plates; format: cell-based, Lactobacillus crispatus; settings: 16 μg/mL tetracycline, 100 μg/mL erythromycin, 32 μg/mL ampicillin, 152 μg/mL sulfamethoxazole with 8 μg/mL trimethoprim
# Protocol: (§3) Multiple commensal bacterial strains from chicken feces were recovered from Columbia blood Agar base (Becton, […] Dickinson and Company, Franklin Lakes, NJ) supplemented with 5% defibrinated sheep blood (Thermo Scientific™, Grand Island, NY), and maintained in Columbia broth (Becton Dickinson and Company, Franklin Lakes, NJ) and propagated by anaerobic growth at 37° C. The strains were subjected to antibiotic susceptibility assessment followed by strain identification.
# Screening of antibiotic susceptible commensal strains. Recovered commensal strain isolates (over 1000 colonies) were spotted on Columbia broth (Becton, […] Dickinson and Company, Franklin Lakes, NJ) agar plates containing each of the four antibiotics for rapid assessment of phenotypic resistance profiles. Screened antibiotics included 16 μg/mL tetracycline (Sigma-Aldrich, St. Louis, MO, USA), 100 μg/mL erythromycin (Fisher Scientific, Waltham, MA, USA), 32 μg/mL ampicillin (Sigma-Aldrich), and 152 μg/mL sulfamethoxazole (Sigma-Aldrich) with 8 μg/mL trimethoprim (Sigma-Aldrich).
# [7] = tested on: Lactobacillus crispatus CG-12; test: MIC assessment (TREK Sensititre); format: cell-based; settings: Lactobacillus crispatus, CG12; L. crispatus CG-12; read-out: MIC
# Protocol: as §3, §1
# [8] = tested on: E. coli CA-4; test: MIC assessment (TREK Sensititre); format: cell-based, Escherichia coli; settings: Escherichia coli, CA4; E. coli CA-4; read-out: MIC
# Protocol: as §2, §1
# [9] = tested on: E. coli CA-20; test: MIC assessment (TREK Sensititre); format: cell-based, Escherichia coli; settings: Escherichia coli, CA20; E. coli CA-20; read-out: MIC
# Protocol: as §2, §1
smiles,measurement,setting,value
"CC1(C)S[C@@H]2[C@H](NC(=O)[C@H](N)c3ccccc3)C(=O)N2[C@H]1C(=O)O [AMP, ampicillin]",MIC,[1],> 16 µg/mL
same,MIC,[2],> 256 µg/mL
same,"retention of Firmicutes, injection versus oral",[3],significant difference in retaining Firmicutes
same,"resistance phenotype from MIC, in words",[4],high resistance
same,change of gut microbiota,"[5]; muscle injection, inoculated with E. coli cocktail (FIG. 7D)",Firmicutes still dominant but with which Lactobacillus drastically reduced
same,change of gut microbiota,"[5]; muscle injection, without inoculation of E. coli cocktail (FIG. 7B)",minimal changes
same,change of gut microbiota,"[5]; oral feeding, inoculated with E. coli cocktail (FIG. 7E)",Firmicutes changed from dominant to minority
same,change of gut microbiota,"[5]; oral, without inoculation of E. coli cocktail (FIG. 7C)",decrease of Firmicutes (still dominant) and significant increase of Proteobacteria
same,phenotypic susceptibility on antibiotic agar plates,[6],susceptible
same,MIC,[7],0.5 µg/mL
same,MIC,[8],> 16 µg/mL
same,MIC,[9],> 16 µg/mL
